Experiments:
[1] = biological target: T1, Dual specificity tyrosine-phosphorylation-regulated kinase 2 (Homo sapiens, UniProt Q92630)
T1 sequence (Q92630 whole entry): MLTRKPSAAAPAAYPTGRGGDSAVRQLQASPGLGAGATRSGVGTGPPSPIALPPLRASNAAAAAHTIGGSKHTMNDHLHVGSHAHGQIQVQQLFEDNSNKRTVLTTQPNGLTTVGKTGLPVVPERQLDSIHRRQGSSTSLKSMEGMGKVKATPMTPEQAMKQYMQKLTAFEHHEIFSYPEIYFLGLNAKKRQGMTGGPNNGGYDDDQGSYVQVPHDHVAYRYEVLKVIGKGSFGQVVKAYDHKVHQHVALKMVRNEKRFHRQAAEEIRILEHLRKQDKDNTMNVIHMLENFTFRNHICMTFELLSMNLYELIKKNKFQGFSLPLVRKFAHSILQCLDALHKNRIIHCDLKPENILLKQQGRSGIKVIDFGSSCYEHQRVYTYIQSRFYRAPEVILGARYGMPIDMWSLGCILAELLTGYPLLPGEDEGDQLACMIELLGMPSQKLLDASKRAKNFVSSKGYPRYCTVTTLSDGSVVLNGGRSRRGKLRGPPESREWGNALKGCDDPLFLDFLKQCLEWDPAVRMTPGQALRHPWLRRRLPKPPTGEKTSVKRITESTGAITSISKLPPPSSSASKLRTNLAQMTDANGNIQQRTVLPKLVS

[2] = biological target: BDNF/NT-3 growth factors receptor (Homo sapiens) (UniProt Q16620); assay: Inhibition of TRKB at 10 uM
[3] = system: Epidermal growth factor receptor (Homo sapiens), P00533 [L858R,T790M]; assay: Inhibition of EGFR T790M/L858R mutant at 10 uM; type: protein assay
[4] = biological target: Serine/threonine-protein kinase PAK 1 (Homo sapiens) (UniProt Q13153); assay: Inhibition of PAK1 at 10 uM
[5] = biological target: MAP kinase-activated protein kinase 5 (Homo sapiens) (UniProt Q8IW41); assay: Inhibition of MAPKAPK5 at 10 uM
[6] = biological target: Casein kinase I isoform gamma-3 (Homo sapiens) (UniProt Q9Y6M4); assay: Inhibition of CK1g3 at 10 uM
[7] = biological target: Ephrin type-A receptor 6 (Homo sapiens) (UniProt Q9UF33); assay: Inhibition of EPHA6 at 10 uM
[8] = biological target: Serine/threonine-protein kinase NIM1 (Homo sapiens) (UniProt Q8IY84); assay: Inhibition of NIM1 at 10 uM
[9] = biological target: Serine/threonine-protein kinase PLK2 (Homo sapiens) (UniProt Q9NYY3); assay: Inhibition of PLK2 at 10 uM
[10] = biological target: Fibroblast growth factor receptor 2 (Homo sapiens) (UniProt P21802); assay: Inhibition of FGFR2 at 10 uM
[11] = biological target: Protein kinase C iota type (Homo sapiens) (UniProt P41743); assay: Inhibition of PKCi at 10 uM
[12] = biological target: cGMP-dependent protein kinase 2 (Homo sapiens) (UniProt Q13237); assay: Inhibition of CGK2 at 10 uM
[13] = biological target: Tyrosine-protein kinase Fgr (Homo sapiens) (UniProt P09769); assay: Inhibition of FGR at 10 uM
[14] = biological target: Mitogen-activated protein kinase kinase kinase 5 (Homo sapiens) (UniProt Q99683); assay: Inhibition of MAP3K5 at 10 uM
[15] = biological target: Serine/threonine-protein kinase Nek9 (Homo sapiens) (UniProt Q8TD19); assay: Inhibition of NEK9 at 10 uM
[16] = biological target: T2, Serine/threonine-protein kinase haspin (Homo sapiens, UniProt Q8TF76)
T2 sequence (Q8TF76 whole entry): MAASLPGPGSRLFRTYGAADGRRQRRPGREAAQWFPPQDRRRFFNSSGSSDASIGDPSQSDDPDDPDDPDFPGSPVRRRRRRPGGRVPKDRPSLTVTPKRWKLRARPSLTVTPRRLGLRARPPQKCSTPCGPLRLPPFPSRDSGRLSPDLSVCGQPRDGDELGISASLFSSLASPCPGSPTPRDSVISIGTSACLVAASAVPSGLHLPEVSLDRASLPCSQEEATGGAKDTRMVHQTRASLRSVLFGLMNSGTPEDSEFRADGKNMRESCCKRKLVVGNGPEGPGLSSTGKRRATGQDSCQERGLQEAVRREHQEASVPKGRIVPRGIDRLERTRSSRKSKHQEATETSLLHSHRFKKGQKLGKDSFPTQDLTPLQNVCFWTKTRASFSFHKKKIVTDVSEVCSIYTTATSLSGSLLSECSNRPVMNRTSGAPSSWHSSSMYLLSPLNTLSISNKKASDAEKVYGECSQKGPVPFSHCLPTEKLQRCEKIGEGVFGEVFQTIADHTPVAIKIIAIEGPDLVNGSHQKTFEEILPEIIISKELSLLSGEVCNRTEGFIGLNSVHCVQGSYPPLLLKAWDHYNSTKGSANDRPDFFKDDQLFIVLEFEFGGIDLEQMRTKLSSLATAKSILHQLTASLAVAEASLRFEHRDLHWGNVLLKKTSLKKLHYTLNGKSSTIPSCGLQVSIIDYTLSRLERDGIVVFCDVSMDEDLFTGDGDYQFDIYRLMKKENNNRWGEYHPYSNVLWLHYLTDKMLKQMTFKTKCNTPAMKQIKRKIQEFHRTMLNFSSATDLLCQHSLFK

[17] = system: Epidermal growth factor receptor (Homo sapiens), P00533 [L861Q]; assay: Inhibition of EGFR L861Q mutant at 10 uM; type: protein assay
[18] = biological target: Rho-associated protein kinase 1 (Homo sapiens) (UniProt Q13464); assay: Inhibition of ROCK1 at 10 uM
[19] = biological target: Dual specificity tyrosine-phosphorylation-regulated kinase 1A (Homo sapiens) (UniProt Q13627); settings: 10 uM
[20] = biological target: Ribosomal protein S6 kinase beta-2 (Homo sapiens) (UniProt Q9UBS0); assay: Inhibition of p70S6Kb at 10 uM
[21] = biological target: Protein kinase C epsilon type (Homo sapiens) (UniProt Q02156); assay: Inhibition of PKCepsilon at 10 uM
[22] = biological target: SRSF protein kinase 3 (Homo sapiens) (UniProt Q9UPE1); assay: Inhibition of MSSK1 (SRPK3) at 10 uM
[23] = biological target: Rho-associated protein kinase 2 (Homo sapiens) (UniProt O75116); assay: Inhibition of ROCK2 at 10 uM
[24] = biological target: Interferon-induced, double-stranded RNA-activated protein kinase (Homo sapiens) (UniProt P19525); assay: Inhibition of PKR at 10 uM
[25] = biological target: Serine/threonine-protein kinase PAK 5 (Homo sapiens) (UniProt Q9P286); assay: Inhibition of PAK5 (PAK7) at 10 uM
[26] = biological target: Dual specificity tyrosine-phosphorylation-regulated kinase 1B (Homo sapiens) (UniProt Q9Y463); assay: Inhibition of DYRK1B at 10 uM
[27] = biological target: Tyrosine-protein kinase Lyn (Homo sapiens) (UniProt P07948); assay: Inhibition of LYNa at 10 uM

Chain of SRSF protein kinase 3 (Homo sapiens) (Q9UPE1 whole entry): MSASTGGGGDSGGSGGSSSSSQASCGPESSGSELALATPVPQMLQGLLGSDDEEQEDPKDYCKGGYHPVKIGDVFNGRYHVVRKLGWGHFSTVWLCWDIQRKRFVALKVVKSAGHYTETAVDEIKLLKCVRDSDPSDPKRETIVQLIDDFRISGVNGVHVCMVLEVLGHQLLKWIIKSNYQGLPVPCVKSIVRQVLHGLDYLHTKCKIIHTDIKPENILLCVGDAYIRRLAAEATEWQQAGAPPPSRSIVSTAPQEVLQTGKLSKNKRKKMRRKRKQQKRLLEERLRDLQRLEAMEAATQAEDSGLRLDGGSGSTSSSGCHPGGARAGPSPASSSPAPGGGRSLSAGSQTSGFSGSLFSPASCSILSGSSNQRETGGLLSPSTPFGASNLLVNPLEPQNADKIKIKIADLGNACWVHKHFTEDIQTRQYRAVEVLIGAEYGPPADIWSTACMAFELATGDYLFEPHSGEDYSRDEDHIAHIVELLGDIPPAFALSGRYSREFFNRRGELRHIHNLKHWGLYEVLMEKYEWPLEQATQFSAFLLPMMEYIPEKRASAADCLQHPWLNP
Chain of Protein kinase C epsilon type (Homo sapiens) (Q02156 whole entry): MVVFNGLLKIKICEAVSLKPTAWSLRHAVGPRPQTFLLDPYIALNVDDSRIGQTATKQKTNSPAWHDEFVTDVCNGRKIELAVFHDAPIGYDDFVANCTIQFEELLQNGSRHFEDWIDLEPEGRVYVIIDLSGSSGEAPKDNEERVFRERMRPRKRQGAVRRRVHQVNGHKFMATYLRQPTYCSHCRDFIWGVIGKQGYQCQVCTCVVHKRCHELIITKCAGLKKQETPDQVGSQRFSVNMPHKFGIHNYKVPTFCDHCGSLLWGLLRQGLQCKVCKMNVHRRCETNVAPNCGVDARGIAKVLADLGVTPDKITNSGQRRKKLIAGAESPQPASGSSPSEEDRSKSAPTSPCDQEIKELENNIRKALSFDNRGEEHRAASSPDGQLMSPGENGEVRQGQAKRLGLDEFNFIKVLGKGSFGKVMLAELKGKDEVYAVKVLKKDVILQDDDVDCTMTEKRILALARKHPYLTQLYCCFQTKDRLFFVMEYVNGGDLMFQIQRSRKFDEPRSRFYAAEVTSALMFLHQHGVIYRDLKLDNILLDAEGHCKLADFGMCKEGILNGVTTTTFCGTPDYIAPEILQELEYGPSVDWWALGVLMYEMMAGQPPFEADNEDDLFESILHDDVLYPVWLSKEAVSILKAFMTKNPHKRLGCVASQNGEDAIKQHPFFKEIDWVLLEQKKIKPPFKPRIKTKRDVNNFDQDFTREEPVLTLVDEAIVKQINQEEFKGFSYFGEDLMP
Chain of Rho-associated protein kinase 2 (Homo sapiens) (O75116 whole entry, looked up): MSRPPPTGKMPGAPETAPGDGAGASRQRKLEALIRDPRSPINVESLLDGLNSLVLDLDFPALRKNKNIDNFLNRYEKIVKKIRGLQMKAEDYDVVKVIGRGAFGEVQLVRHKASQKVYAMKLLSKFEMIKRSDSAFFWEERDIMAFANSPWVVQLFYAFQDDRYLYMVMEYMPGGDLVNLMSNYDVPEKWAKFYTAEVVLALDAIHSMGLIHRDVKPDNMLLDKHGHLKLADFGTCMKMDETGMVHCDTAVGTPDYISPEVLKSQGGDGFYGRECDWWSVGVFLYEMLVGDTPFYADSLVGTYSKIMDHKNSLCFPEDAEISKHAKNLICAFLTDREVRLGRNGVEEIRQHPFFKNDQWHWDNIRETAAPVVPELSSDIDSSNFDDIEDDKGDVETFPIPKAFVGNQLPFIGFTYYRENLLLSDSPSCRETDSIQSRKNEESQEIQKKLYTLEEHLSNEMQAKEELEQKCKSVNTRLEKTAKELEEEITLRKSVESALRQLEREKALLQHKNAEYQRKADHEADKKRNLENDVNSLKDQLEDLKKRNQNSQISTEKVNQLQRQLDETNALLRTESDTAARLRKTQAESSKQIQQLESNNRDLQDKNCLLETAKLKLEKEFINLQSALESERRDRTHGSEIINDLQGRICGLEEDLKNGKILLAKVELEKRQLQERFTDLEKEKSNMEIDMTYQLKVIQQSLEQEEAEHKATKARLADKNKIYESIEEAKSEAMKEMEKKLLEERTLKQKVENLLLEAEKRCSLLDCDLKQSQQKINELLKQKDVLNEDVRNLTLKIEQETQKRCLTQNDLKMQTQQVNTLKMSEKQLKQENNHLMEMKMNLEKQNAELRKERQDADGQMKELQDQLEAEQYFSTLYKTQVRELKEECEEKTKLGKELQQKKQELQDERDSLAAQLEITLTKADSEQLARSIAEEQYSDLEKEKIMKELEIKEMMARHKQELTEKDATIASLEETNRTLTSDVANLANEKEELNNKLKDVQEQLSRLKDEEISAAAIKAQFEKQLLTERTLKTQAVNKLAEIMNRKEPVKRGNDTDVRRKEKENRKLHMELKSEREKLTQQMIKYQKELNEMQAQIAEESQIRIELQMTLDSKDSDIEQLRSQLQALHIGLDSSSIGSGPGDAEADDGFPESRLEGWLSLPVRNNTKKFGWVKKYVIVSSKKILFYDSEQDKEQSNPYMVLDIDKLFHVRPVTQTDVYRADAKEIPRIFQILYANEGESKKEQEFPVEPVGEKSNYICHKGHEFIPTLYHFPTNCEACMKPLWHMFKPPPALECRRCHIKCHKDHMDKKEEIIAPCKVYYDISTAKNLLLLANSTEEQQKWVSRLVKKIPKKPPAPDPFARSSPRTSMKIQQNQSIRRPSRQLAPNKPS
Chain of MAP kinase-activated protein kinase 5 (Homo sapiens) (Q8IW41 whole entry, canonical isoform): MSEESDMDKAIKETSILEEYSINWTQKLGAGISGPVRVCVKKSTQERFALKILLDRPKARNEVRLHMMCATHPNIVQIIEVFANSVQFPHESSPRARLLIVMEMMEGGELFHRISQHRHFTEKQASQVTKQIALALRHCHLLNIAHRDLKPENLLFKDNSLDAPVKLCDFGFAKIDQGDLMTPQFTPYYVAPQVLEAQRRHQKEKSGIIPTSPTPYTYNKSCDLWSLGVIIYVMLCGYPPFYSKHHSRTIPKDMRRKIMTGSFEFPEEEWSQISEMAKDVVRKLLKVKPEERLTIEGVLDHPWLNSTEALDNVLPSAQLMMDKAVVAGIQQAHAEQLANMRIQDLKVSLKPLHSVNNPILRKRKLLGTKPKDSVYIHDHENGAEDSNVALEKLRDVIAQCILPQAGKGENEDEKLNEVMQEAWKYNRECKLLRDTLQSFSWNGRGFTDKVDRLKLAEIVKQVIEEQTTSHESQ
Chain of cGMP-dependent protein kinase 2 (Homo sapiens) (Q13237 whole entry): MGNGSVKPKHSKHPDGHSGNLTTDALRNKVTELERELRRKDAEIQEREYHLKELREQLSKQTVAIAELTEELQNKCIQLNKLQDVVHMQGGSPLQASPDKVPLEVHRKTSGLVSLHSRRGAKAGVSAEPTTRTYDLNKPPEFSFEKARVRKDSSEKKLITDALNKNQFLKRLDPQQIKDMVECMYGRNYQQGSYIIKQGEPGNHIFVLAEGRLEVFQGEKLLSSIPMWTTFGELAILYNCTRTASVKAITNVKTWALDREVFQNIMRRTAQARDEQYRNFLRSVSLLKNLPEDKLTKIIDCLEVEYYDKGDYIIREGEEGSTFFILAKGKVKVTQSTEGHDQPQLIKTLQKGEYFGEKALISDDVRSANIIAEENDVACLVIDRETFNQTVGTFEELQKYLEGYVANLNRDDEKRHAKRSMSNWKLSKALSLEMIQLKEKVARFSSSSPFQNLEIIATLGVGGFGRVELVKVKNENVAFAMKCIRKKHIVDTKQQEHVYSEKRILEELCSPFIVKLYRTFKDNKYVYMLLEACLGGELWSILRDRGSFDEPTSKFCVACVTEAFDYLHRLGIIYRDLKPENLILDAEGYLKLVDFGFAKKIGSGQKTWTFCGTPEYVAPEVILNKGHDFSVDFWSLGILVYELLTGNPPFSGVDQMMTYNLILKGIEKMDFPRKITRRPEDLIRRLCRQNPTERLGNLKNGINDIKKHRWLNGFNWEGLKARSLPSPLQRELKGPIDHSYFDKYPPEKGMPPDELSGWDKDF
Chain of Protein kinase C iota type (Homo sapiens) (P41743 whole entry): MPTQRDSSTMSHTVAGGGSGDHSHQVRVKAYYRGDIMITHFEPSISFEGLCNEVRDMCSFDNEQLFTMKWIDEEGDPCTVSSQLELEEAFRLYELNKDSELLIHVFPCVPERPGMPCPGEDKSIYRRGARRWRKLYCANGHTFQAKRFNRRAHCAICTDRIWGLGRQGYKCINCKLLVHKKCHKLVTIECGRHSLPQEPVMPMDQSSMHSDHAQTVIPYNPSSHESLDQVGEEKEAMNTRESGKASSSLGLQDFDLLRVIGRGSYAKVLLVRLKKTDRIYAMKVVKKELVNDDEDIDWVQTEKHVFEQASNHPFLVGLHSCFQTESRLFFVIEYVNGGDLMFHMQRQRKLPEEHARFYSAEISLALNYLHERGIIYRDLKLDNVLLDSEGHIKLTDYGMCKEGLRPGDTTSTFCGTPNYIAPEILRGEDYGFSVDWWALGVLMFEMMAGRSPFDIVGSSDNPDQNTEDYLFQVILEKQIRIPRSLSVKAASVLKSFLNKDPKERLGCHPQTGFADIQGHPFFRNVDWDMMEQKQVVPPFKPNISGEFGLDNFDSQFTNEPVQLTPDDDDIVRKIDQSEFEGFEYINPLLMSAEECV
Chain of Serine/threonine-protein kinase NIM1 (Homo sapiens) (Q8IY84 whole entry): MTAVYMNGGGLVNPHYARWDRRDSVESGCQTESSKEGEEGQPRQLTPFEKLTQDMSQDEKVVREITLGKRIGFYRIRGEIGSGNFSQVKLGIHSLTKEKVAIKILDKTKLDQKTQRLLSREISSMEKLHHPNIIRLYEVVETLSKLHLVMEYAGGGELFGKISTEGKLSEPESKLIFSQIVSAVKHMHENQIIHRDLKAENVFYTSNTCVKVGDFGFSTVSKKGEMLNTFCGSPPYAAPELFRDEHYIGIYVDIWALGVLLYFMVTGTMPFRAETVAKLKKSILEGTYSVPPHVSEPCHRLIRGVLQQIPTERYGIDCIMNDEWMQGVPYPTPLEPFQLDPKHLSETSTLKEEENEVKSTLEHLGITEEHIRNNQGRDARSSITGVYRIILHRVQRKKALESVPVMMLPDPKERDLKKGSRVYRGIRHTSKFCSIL

COc1ccc2c3ccnc(C(F)(F)F)c3n(CCCCN)c2c1
IC50 [1]: 15 µM | inhibition [2]: 7% | inhibition [3]: 4% | inhibition [4]: 3% | inhibition [5]: 1% | inhibition [6]: 53% | inhibition [7]: 0% | inhibition [8]: 1% | inhibition [9]: 15% | inhibition [10]: 0% | inhibition [11]: 9% | inhibition [12]: 91% | inhibition [13]: 11% | inhibition [14]: 17% | inhibition [15]: 0% | IC50 [16]: 0.1 µM | inhibition [17]: 6% | inhibition [18]: 84% | inhibition [19]: 100% | inhibition [20]: 75% | inhibition [21]: 72% | inhibition [22]: 7% | inhibition [23]: 87% | inhibition [24]: 6% | inhibition [25]: 6% | inhibition [26]: 98% | inhibition [27]: 7%

— ChEMBL document CHEMBL2010722, “Structure-activity relationship study of beta-carboline derivatives as haspin kinase inhibitors” (Bioorg Med Chem Lett, 2012)
